Measured values taken from US20040044077A1, “Agents for inhibiting or restoring skin damage caused by drying and method for evaluating the same” (priority 2000, published 2004).

Key:
filaggrin gene = experiment: Expression level of the filaggrin gene (RT-PCR) in cultured human keratinocytes exposed to a gaseous phase (drying); type: cell-based; settings: drying stimulus; for Relative expression level of filaggrin gene (%) Mean: no treatment = 100
Description: (§1) Normal keratinocytes of human preputial origin and 3T3 cells of mouse origin were used.
(§2) The culture medium was DMEM-Ham's F12 (3:1) containing hydrocortisone, cholera enterotoxin, epidermal growth factor, insulin and 10% FBS.
(§3) The keratinocytes were cultured according to the method described in Rheinwald et al., Cell, 6, 331-344(1975).
(§4) An outline is given below. 3T3 cells were treated with mitomycin C and used as a feeder layer. Normal human keratinocytes (1×10^5 cells) were inoculated onto mitomycin C-treated 3T3 cells and cultured at 37° C. in a 95% air-5% carbon dioxide environment until they became confluent. They were exposed to a gaseous phase by removing the culture supernatant. Each test substance was added 30 minutes before exposed to a gaseous phase, followed by incubation at 37° C. The culture to which no test sample was added was used as a control. The exposure to a gaseous phase was carried out at 37° C. for 0-6 hours.
After each test substance was added to the aforesaid culture system and the cells were exposed to a gaseous phase for a predetermined period of time, RNA was extracted from the cells according to the AGPC method. This RNA was subjected to RT-PCR in the following manner. A primer specific for fillaggrin was prepared on the basis of the base sequence of filaggrin which is reported in McKinley-Grant L. J. et al., Proc. Natl. Acad. Sci. U.S.A., 86, 4848-4852(1989). In order to assay mRNA for filaggrin, RT-PCR was carried out by converting mRNA to cDNA with the aid of reverse transcriptase. Using this cDNA as a template with the aforesaid primer, a polymerase reaction (a well-known reaction) was carried out. After the PCR product was electrophoresed in agarose gel, the resulting gel was soaked in an ethidium bromide solution and assayed for DNA. The quantitative analysis of DNA bands was carried out with NIH Image (analytical program). A correction was made with the aid of glyceraldehyde-3-phosphate dehydrogenase (G3PDH).
(6-8) The efficacies of other active ingredients and combinations of active ingredients in inhibiting a reduction in the expression of the filaggrin gene in cultured human keratinocytes as induced by drying are shown in Tables 1 and 2 below, respectively. In these tables, the degree to which the addition of a drug inhibited a reduction in gene expression is expressed as a percentage, assuming that the gene expression before drying is 100% and the gene expression after drying is […]. In Table 1, each active ingredient was added at an extract concentration of 0.5%. In Table 2, compositions containing the indicated active ingredient(s) at the indicated concentration(s) (in % by weight) were tested.
The aforesaid recovery rates (%) indicate the degree to which the addition of each test substance restored the expression level of the filaggrin gene as compared with that in the untreated group not exposed to a drying stimulus.

filaggrin protein = experiment: Amount of filaggrin protein (western blotting) in cultured human keratinocytes exposed to a gaseous phase (drying); type: cell-based; settings: culture in the presence of 10% glycerol, FIG. 3
Description: as §1, §2, §3, §4
After each test substance was added to the aforesaid culture system and the cells were exposed to a gaseous phase for a predetermined period of time, protein was extracted from the cells. According to a conventional method, filaggrin protein or filaggrin protein precursor (profilaggrin) was determined by western blotting. An outline is given below. […] The quantitative analysis of bands was carried out with NIH Image (analytical program). […]

For `OCC(O)CO` [glycerol], the “Recovery rate (%)” value (filaggrin gene; 0.15% by weight) was 7.5%, the “Relative expression level of filaggrin gene (%) Mean” value (“Relative expression level … (%) Mean” below) (filaggrin gene; 0.15% by weight) was 51% and the “Recovery rate (%)” value (filaggrin gene; 0.30% by weight) was 60.4%. The “Relative expression level … (%) Mean” value (filaggrin gene; 0.30% by weight) was 79% and the “effect on reduction in filaggrin protein level induced by drying” value (filaggrin protein) was “inhibiting a reduction in filaggrin protein level”.
For `OC[C@@H](O)[C@H](O)[C@@H](O)CO` [xylitol], the “Recovery rate (%)” value (filaggrin gene; 0.15% by weight) was 5.7%, the “Relative expression level … (%) Mean” value (filaggrin gene; 0.15% by weight) was 50% and the “Recovery rate (%)” value (filaggrin gene; 0.30% by weight) was 37.7%. For the same compound, the “Relative expression level … (%) Mean” value (filaggrin gene; 0.30% by weight) was 67%.
